Reference: patent US9359341B2, “Aldehyde derivative of substitute oxazolidinones” (WANBURY LTD., priority 2012, dated 2016)
Like-named read-outs stand apart in the source and are kept apart here.

What was measured:
[1] = Stability in simulating intestinal fluid (SIF); type: physicochemical; conditions: over 120 min
Protocol: On completion of incubation period, the solution is centrifuged and supernatant is taken. To the supernatant, ice cold acetonitrile containing IS is added, vortexed and injected into LCMS/MS.
API 4000, ESI Agilent 1100 column: Gemini Nx 100 mm×4.6 mm 5.μ; column temperature: 30° C.; eluent A: 0.1% formic acid in water, eluent B: acetonitrile; gradient: 0-2.5 min 95% A, 5% B; 2.5-2.6 min 5% A, 95% B; 2.6-4.2 min 95% A, 5% B; flow rate: 0.8 ml/min; ESI. Q1:464.098, Q3:144.255
Prepared 0.1 mol of citric acid and 0.2 mol of di sodium hydrogen phosphate in water. Buffer pH 2.2, 4 and 7.8 are prepared using citric acid and disodium hydrogen phosphate by adjusting the pH with 0.1N HCl or 1N NaOHpH 7.4: 8.89 g disodium hydrogen phosphate (Solution A) add to 1 liter of water, 1.5601 g sodium di-hydrogen phosphate (solution B) are made up to 1 liter with water; Solution A (19 ml) and Solution B (81 ml) are mixed. SIF/SGF: 2.38 g of SIF original powder (biorelavant media) is dissolved in 1 L of milliQ water. The pH of the solution is adjusted for SIF (7.4) and SGF (2.2) with 0.1N HCl. The ratios of the peak areas (F) at the respective time points in relation to the peak areas at the starting time are calculated
The peak area (F) is directly correlated to the amount of test compound which is quantified by the LC MS method. […]

caco2 system = assay: Permeability in caco2 system; type: in vitro ADME; conditions: caco2 system
[2] = Permeability in caco2 system; type: in vitro ADME; conditions: human, Caco-2, caco2 system
[3] = Anticoagulant activity (PT, APTT) in human plasma; conditions: PT and APTT, 0.1 to 1.0 μg/mL
Protocol: The anticoagulant action of the test substance (compound formula-B) and rivaroxaban was determined in vitro using human plasma. The human plasma used for this experiment was separated from the blood collected in sodium citrate as anticoagulant. The prothrombin time (PT) was determined by using a commercial test kit (Neoplastin from Stagid) and APTT was determined using (Synthasil kit by IL). […] Coagulation was then started by addition of thromboplastin, and time when coagulation occurred was determined. The concentration of test substance which effected a doubling of prothrombin time was determined.

CYP isoforms = assay: CYP inhibition assay, all isoforms (overall interpretation); type: in vitro ADME, human; conditions: with other drug when administered
Protocol: (§1) The ability of substances to inhibit CYP1A2, CYP2C9, CYP2D6, CYP2C19, CYP2J2 and CYP3A4 in humans was investigated with pooled human liver microsomes as enzyme source in the presence of standard substrates (see below) which form CYP-isoform-specific metabolites.
(§2) Standard incubation mixtures comprise NADPH and substrates in 100 mM phosphate buffer (pH 7.4) in a total volume of 200 μl. Test compound are dissolved in acetonitrile. Incubated with pooled human liver microsomes at 37° C. for a defined time. The reactions are stopped by adding 100 μl of acetonitrile in which a suitable internal standard is always present. Precipitated proteins are removed by centrifugation, and the supernatants analyzed by LC-MS/MS. The data represents the extrapolated IC50 (μM) concentration derived from 3 μM.
(§3) This is an essential parameter to gauge drug-drug interactions.

[4] = system: CYP1A2, CYP2C9, CYP2D6, CYP2C19, CYP2J2 and CYP3A4; assay: as above; type: in vitro ADME, human; conditions: human, pooled human liver microsomes, pH 7.4; all assayed isoforms; minimal inhibition; read-out: inhibition of the CYP isoforms that were assayed
Protocol: as §1, §2, §3

[5] = In vitro stability in mouse plasma; type: in vitro ADME; conditions: conversion to rivaroxaban seen from zero min
Protocol: (§4) The final concentration of the test compound in the assay is 5 micromolar. […] C. The 100 microliters of aliquot at time point was removed and diluted with ice cold acetonitrile containing IS (200.mu·L) to stop the reactions. Samples are centrifuged at 10,000 RPM for 5 minutes to precipitate proteins. Supernatants are transferred to micro centrifuge tubes and stored at −20° C. for analysis of LC/MS/MS. The percent parent remaining of the test substance is calculated as ratio of peak area at each time point to peak area ratio at zero min, multiplied by 100.
(§5) API 4000, ESI Agilent 1100 column: Gemini Nx 100 mm×4.6 mm 5.1; column temperature: 30° C.; eluent A: 0.1% formic acid in water, eluent B: acetonitrile; gradient: 0-2.5 min 95% A, 5% B; 2.5-2.6 min 5% A, 95% B; 2.6-4.2 min 95% A, 5% B; flow rate: 0.8 ml/min; ESI. Q1:464.098, Q3:144.255

CYP1A2 = CYP1A2 (Homo sapiens (Human), UniProt P05177); assay: CYP inhibition assay; type: in vitro ADME; conditions: pooled human liver microsomes; extrapolated IC50 derived from 3 μM; read-out: IC50 (μM) of CYP isoforms, 1A2
CYP1A2, sequence (P05177 whole entry, canonical isoform): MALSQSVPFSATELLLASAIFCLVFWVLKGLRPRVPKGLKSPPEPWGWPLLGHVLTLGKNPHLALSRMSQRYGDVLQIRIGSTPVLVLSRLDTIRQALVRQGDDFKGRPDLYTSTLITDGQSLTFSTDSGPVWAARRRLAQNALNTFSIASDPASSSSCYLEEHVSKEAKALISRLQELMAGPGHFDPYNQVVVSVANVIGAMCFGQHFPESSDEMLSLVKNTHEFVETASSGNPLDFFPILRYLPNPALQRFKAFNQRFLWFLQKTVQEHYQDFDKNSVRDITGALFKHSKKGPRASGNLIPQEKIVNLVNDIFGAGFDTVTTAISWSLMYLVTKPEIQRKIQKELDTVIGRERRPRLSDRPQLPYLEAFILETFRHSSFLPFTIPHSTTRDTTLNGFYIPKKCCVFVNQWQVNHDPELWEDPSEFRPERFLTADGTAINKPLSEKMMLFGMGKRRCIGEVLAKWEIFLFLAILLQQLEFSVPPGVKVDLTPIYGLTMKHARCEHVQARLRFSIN
Protocol: as §1
as §2, with “LC-MS/MS.” for “LC-MS/MS. The data represents the extrapolated IC50 (μM) concentration derived from 3 μM.”

[6] = In vitro liver microsomal stability assay (human); type: in vitro ADME; conditions: human liver microsomes
Protocol: Liver microsomal stability assays are conducted at 1 mg per mL liver microsome protein with an NADPH in phosphate buffer (100 mM, pH 7.4). Test compounds (compound of formula B of the invention) are prepared as solutions in 20% methanol-water and added to the assay mixture (final assay concentration 1 μM) and incubated at 37° C. Aliquots (100.μ·L) are taken out at times 0, 15, and 30 minutes, and diluted with ice cold acetonitrile containing IS (200.mu·L) to stop the reactions. Samples are centrifuged at 10,000 RPM for 5 minutes to precipitate proteins. Supernatants are transferred to micro centrifuge tubes and stored at −20° C. for analysis of LC/MS/MS. The percent parent remaining of the test substance is calculated as Ratio of peak area at each time point to peak area ratio at zero min, multiplied by 100. The compound formula (B) is converted to Rivaroxaban in microsomal assay.

[7] = In vitro stability in human plasma; type: in vitro ADME; conditions: conversion to rivaroxaban seen from zero min
Protocol: as §4, §5

Interpretation: Pgp substrate (efflux of >2) (caco2 system): observed to be a Pgp substrate.
Papp ([2]; read-out: Interpretation: permeability, classification based on Papp): > 20 ×10⁻⁶ cm/s
Papp ([2]; read-out: Papp A > B): 17.4 ×10⁻⁶ cm/s
Papp ([2]; read-out: Papp B > A): 40.3 ×10⁻⁶ cm/s
IC50 [4]: > 1000 nM
Conversion: amount of test product detected [5]: min. Neglible
IC50 (CYP1A2): 1.4 µM
Observation (metabolism; for Test Product: of the formed rivaroxaban) [6]: stable in human
amount of test product detected ([6]; metabolised to rivaroxaban from zero min): Neglible amount
Conversion: amount of test product detected [7]: min. Neglible
Structure (SMILES): O=CN(C[C@H]1CN(c2ccc(N3CCOCC3=O)cc2)C(=O)O1)C(=O)c1ccc(Cl)s1 [Compound formula B, 5-chloro-N-formyl-N-({(5S)-2-oxo-3-[4-(3-oxomorpholin-4-yl)phenyl]-1,3-oxazolidin-5-yl}methyl)thiophene-2-carboxamide]
stability at simulating intestinal conditions [1]: stable at simulating intestinal conditions
anticoagulant activity [3]: significant anticoagulant activity
Interpretation of CYP inhibition studies (CYP isoforms): Low drug-drug interaction (compound formula-B
